From ChEMBL document CHEMBL1671654, “In vivo activity of the pyrrolopyrazolyl-substituted oxazolidinone RWJ-416457” (Antimicrob Agents Chemother, 2009)
≈ marks a conversion by molar mass, not a printed value. Calls of active or inactive are those of the source. No cut-off for these calls is given here.

How the values were obtained:
[1] = tested on: Staphylococcus aureus; test: Antibacterial activity against Methicillin-susceptible Staphylococcus aureus ATCC 13709 after 16 to 20 hrs by broth microdilution method; type: functional
[2] = tested on: Staphylococcus aureus; test: Antibacterial activity against community-associated methicillin-resistant Staphylococcus aureus OC8525 after 16 to 20 hrs by broth microdilution method; type: functional
[3] = tested on: Streptococcus pneumoniae; test: Antibacterial activity against penicillin-susceptible Streptococcus pneumoniae ATCC 6301 after 16 to 20 hrs by broth microdilution method; type: functional
[4] = tested on: Staphylococcus aureus; test: Antibacterial activity against Methicillin-susceptible Staphylococcus aureus ATCC 13709 after 16 to 20 hrs by broth microdilution method relative to Linezolid; type: functional
[5] = tested on: Streptococcus pneumoniae; test: Antibacterial activity against penicillin-susceptible Streptococcus pneumoniae ATCC 6301 after 16 to 20 hrs by broth microdilution method relative to Linezolid; type: functional
[6] = tested on: Staphylococcus aureus; test: Antibacterial activity against methicillin-susceptible Staphylococcus aureus ATCC 13709 infected in po dosed Swiss Webster mouse administered at 1 to 3 hrs post infection measured after 3 days; type: functional; details: ATCC 13709, po
[7] = tested on: Staphylococcus aureus; test: Antibacterial activity against community-associated methicillin-resistant Staphylococcus aureus OC8525 infected in po dosed Swiss Webster mouse administered at 1 to 3 hrs post infection measured after 3 days; type: functional
[8] = tested on: Streptococcus pneumoniae; test: Antibacterial activity against penicillin-susceptible Streptococcus pneumoniae ATCC 6301 infected in po dosed Swiss Webster mouse administered at 1 to 3 hrs post infection measured after 3 days; type: functional; details: ATCC 6301, po
[9] = tested on: Staphylococcus aureus; test: Antibacterial activity against methicillin-susceptible Staphylococcus aureus ATCC 13709 infected in sc dosed Swiss Webster mouse administered at 1 to 3 hrs post infection measured after 3 days; type: functional; details: ATCC 13709, sc
[10] = tested on: Staphylococcus aureus; test: Antibacterial activity against community-associated methicillin-resistant Staphylococcus aureus OC8525 infected in sc dosed Swiss Webster mouse administered at 1 to 3 hrs post infection measured after 3 days; type: functional
[11] = tested on: Streptococcus pneumoniae; test: Antibacterial activity against penicillin-susceptible Streptococcus pneumoniae ATCC 6301 infected in sc dosed Swiss Webster mouse administered at 1 to 3 hrs post infection measured after 3 days; type: functional; details: ATCC 6301, sc
[12] = tested on: Staphylococcus aureus; test: Antibacterial activity against methicillin-susceptible Staphylococcus aureus ATCC 13709 infected in iv dosed Swiss Webster mouse administered at 1 to 3 hrs post infection measured after 3 days; type: functional; details: ATCC 13709, iv
[13] = tested on: Staphylococcus aureus; test: Antibacterial activity against community-associated methicillin-resistant Staphylococcus aureus OC8525 infected in iv dosed Swiss Webster mouse administered at 1 to 3 hrs post infection measured after 3 days; type: functional
[14] = tested on: Streptococcus pneumoniae; test: Antibacterial activity against penicillin-susceptible Streptococcus pneumoniae ATCC 6301 infected in iv dosed Swiss Webster mouse administered at 1 to 3 hrs post infection measured after 3 days; type: functional; details: ATCC 6301, iv
[15] = tested on: Staphylococcus aureus; test: Antibacterial activity against methicillin-susceptible Staphylococcus aureus Smith ATCC 13709 infected in SKH1 mouse assessed as log reduction in CFU/g skin at => 80 mg/kg/day, po administered post infection measured after 48 hrs; type: functional
[16] = tested on: Staphylococcus aureus; test: Antibacterial activity against methicillin-susceptible Staphylococcus aureus Smith ATCC 13709 infected in SKH1 mouse assessed as log reduction in CFU/g skin at 5 mg/kg/day, po administered post infection measured after 48 hrs; type: functional, organism-based
[17] = tested on: Staphylococcus aureus; test: Bacteriostatic activity against methicillin-susceptible Staphylococcus aureus Smith ATCC 13709 infected in SKH1 mouse at 20 mg/kg/day, po administered post infection measured after 48 hrs; type: functional, organism-based
[18] = tested on: Staphylococcus aureus; test: Antibacterial activity against community-associated methicillin-resistant Staphylococcus aureus OC8525 infected in SKH1 mouse assessed as log reduction in CFU/g skin at 5 mg/kg/day, po administered post infection measured after 48 hrs; type: functional, organism-based
[19] = tested on: Staphylococcus aureus; test: Antibacterial activity against community-associated methicillin-resistant Staphylococcus aureus OC8525 infected in SKH1 mouse assessed as log reduction in CFU/g skin up to 320 mg/kg/day, po administered post infection measured after 48 hrs; type: functional
[20] = tested on: Streptococcus pneumoniae; test: Antibacterial activity against penicillin-susceptible Streptococcus pneumoniae ATCC 6301 infected in po dosed CF-1 mouse administered at 24 hrs post infection measured after 48 hrs relative to Linezolid; type: functional
[21] = AUC (0 to 24 hrs) in CF-1 mouse at 2 mg/kg, iv; type: ADME, organism-based; set-up: time < 24 hr, dose 2 mg/kg, route intravenous; details: plasma
[22] = AUC (0 to 24 hrs) in CF-1 mouse at 10 mg/kg, sc; type: ADME, organism-based; set-up: time < 24 hr, dose 10 mg/kg, route subcutaneous; details: plasma
[23] = AUC (0 to 24 hrs) in CF-1 mouse at 10 mg/kg, po; type: ADME, organism-based; set-up: time < 24 hr, dose 10 mg/kg, route oral; details: plasma
[24] = tested on: Mus musculus; test: fAUC (0 to 24 hrs) in CF-1 mouse at 2 mg/kg, iv; type: ADME, organism-based; set-up: dose 2 mg/kg, route intravenous; details: in vivo
[25] = tested on: Mus musculus; test: fAUC (0 to 24 hrs) in CF-1 mouse at 10 mg/kg, sc; type: ADME, organism-based; set-up: dose 10 mg/kg, route subcutaneous; details: in vivo
[26] = tested on: Mus musculus; test: fAUC (0 to 24 hrs) in CF-1 mouse at 10 mg/kg, po; type: ADME, organism-based; set-up: dose 10 mg/kg, route oral; details: in vivo
[27] = Cmax in CF-1 mouse at 2 mg/kg, iv; type: ADME, organism-based; set-up: dose 2 mg/kg, route intravenous; details: in vivo
[28] = Cmax in CF-1 mouse at 10 mg/kg, sc; type: ADME, organism-based; set-up: dose 10 mg/kg, route subcutaneous; details: in vivo
[29] = Cmax in CF-1 mouse at 10 mg/kg, po; type: ADME, organism-based; set-up: dose 10 mg/kg, route oral; details: in vivo
[30] = tested on: Mus musculus; test: fCmax in CF-1 mouse at 2 mg/kg, iv; type: ADME, organism-based; set-up: dose 2 mg/kg, route intravenous; details: in vivo
[31] = tested on: Mus musculus; test: fCmax in CF-1 mouse at 10 mg/kg, sc; type: ADME, organism-based; set-up: dose 10 mg/kg, route subcutaneous; details: in vivo
[32] = tested on: Mus musculus; test: fCmax in CF-1 mouse at 10 mg/kg, po; type: ADME, organism-based; set-up: dose 10 mg/kg, route oral; details: in vivo
[33] = Tmax in CF-1 mouse serum at 10 mg/kg, sc; type: ADME, organism-based; set-up: dose 10 mg/kg, route subcutaneous
[34] = Tmax in CF-1 mouse serum at 10 mg/kg, po; type: ADME, organism-based; set-up: dose 10 mg/kg, route oral
[35] = Half life in CF-1 mouse at 2 mg/kg, iv; type: ADME, organism-based; set-up: dose 2 mg/kg, route intravenous; details: in vivo
[36] = Half life in CF-1 mouse at 10 mg/kg, sc; type: ADME, organism-based; set-up: dose 10 mg/kg, route subcutaneous; details: in vivo
[37] = Half life in CF-1 mouse at 10 mg/kg, po; type: ADME, organism-based; set-up: dose 10 mg/kg, route oral; details: in vivo
[38] = Clearance in CF-1 mouse at 2 mg/kg, iv; type: ADME, organism-based; set-up: dose 2 mg/kg, route intravenous; details: in vivo
[39] = Apparent oral clearance in CF-1 mouse at 10 mg/kg, sc; type: ADME, organism-based; set-up: dose 10 mg/kg, route oral; details: in vivo
[40] = Apparent oral clearance in CF-1 mouse at 10 mg/kg, po; type: ADME, organism-based; set-up: dose 10 mg/kg, route oral; details: in vivo
[41] = Ratio of fAUC (24 hrs) for Methicillin-susceptible Staphylococcus aureus ATCC 13709 infected po dosed mouse to MIC for Methicillin-susceptible Staphylococcus aureus ATCC 1370; type: functional
[42] = Ratio of fAUC (24 hrs) for Methicillin-susceptible Staphylococcus aureus ATCC 13709 infected sc dosed mouse to MIC for Methicillin-susceptible Staphylococcus aureus ATCC 1370; type: functional
[43] = Ratio of fAUC (24 hrs) for Methicillin-susceptible Staphylococcus aureus ATCC 13709 infected iv dosed mouse to MIC for Methicillin-susceptible Staphylococcus aureus ATCC 1370; type: functional
[44] = Ratio of fAUC (24 hrs) for community-associated methicillin-resistant Staphylococcus aureus OC8525 infected po dosed mouse to MIC for community-associated methicillin-resistant Staphylococcus aureus OC8525; type: functional
[45] = Ratio of fAUC (24 hrs) for community-associated methicillin-resistant Staphylococcus aureus OC8525 infected sc dosed mouse to MIC for community-associated methicillin-resistant Staphylococcus aureus OC8525; type: functional
[46] = Ratio of fAUC (24 hrs) for community-associated methicillin-resistant Staphylococcus aureus OC8525 infected iv dosed mouse to MIC for community-associated methicillin-resistant Staphylococcus aureus OC8525; type: functional
[47] = Ratio of fAUC (24 hrs) for penicillin-susceptible Streptococcus pneumoniae ATCC 6301 infected po dosed mouse to MIC for penicillin-susceptible Streptococcus pneumoniae ATCC 6301; type: functional
[48] = Ratio of fAUC (24 hrs) for penicillin-susceptible Streptococcus pneumoniae ATCC 6301 infected sc dosed mouse to MIC for penicillin-susceptible Streptococcus pneumoniae ATCC 6301; type: functional
[49] = Ratio of fAUC (24 hrs) for penicillin-susceptible Streptococcus pneumoniae ATCC 6301 infected iv dosed mouse to MIC for penicillin-susceptible Streptococcus pneumoniae ATCC 6301; type: functional
[50] = tested on: Staphylococcus aureus; test: Antibacterial activity against Methicillin-susceptible Staphylococcus aureus assessed as skin lesion size; type: functional
[51] = tested on: Staphylococcus aureus; test: Antibacterial activity against Methicillin-resistant Staphylococcus aureus assessed as skin lesion size; type: functional

Work on `CC(=O)NC[C@H]1CN(c2ccc(N3Cc4cn(C)nc4C3)c(F)c2)C(=O)O1` yielded an MIC [1] of 1 µg/mL (≈ 2.68 µM), an MIC [2] of 2 µg/mL (≈ 5.36 µM) and an MIC [3] of 1 µg/mL (≈ 2.68 µM). The “fold change (FC)” value [4] was 2, the “fold change (FC)” value [5] was 2 and the ED50 [6] was 3.4 mg/kg/day. It also gave an ED50 [7] of 2.1 mg/kg/day, an ED50 [8] of 3.1 mg/kg/day and an ED50 [9] of 4.7 mg/kg/day. It also gave an ED50 [10] of 3.5 mg/kg/day, an ED50 [11] of 9.3 mg/kg/day and an ED50 [12] of 4 mg/kg/day. The ED50 [13] was 1.5 mg/kg/day, the ED50 [14] was 18 mg/kg/day and the FC [15] was 0.9. The Activity [16] was “inactive”, the Activity [17] was “Active” and the Activity [18] was “inactive”. The FC [19] was 1, the “fold change (FC)” value [20] was 2 and the ED50 ([20]; Streptococcus pneumoniae, ATCC 6301, po) was 3.1 mg/kg/day. It also gave an AUC(0-t) at 24 h [21] of 3200 ng·h/mL, an AUC(0-t) at 24 h [22] of 15000 ng·h/mL and an AUC(0-t) at 24 h [23] of 23000 ng·h/mL. For the same compound, the fAUC [24] was 1700 ng·h/mL, the fAUC [25] was 8300 ng·h/mL and the fAUC [26] was 13000 ng·h/mL. For the same compound, the Cmax [27] was 4400 ng/mL, the Cmax [28] was 7500 ng/mL and the Cmax [29] was 3500 ng/mL. It also gave a fCmax [30] of 2.4 µg/mL, a fCmax [31] of 4.1 µg/mL and a fCmax [32] of 1.9 µg/mL. For the same compound, the Tmax [33] was 0.5 h, the Tmax [34] was 2 h and the half-life [35] was 1.5 h. The half-life [36] was 2 h, the half-life [37] was 3.4 h and the clearance [38] was 10.5 mL/min/kg. It also gave a CL/F [39] of 10.8 mL/min/kg, a CL/F [40] of 7.17 mL/min/kg and a fAUC/MIC [41] of 13. The fAUC/MIC [42] was 8.3, the fAUC/MIC [43] was 8.6 and the fAUC/MIC [44] was 6.3. For the same compound, the fAUC/MIC [45] was 4.1, the fAUC/MIC [46] was 4.3 and the fAUC/MIC [47] was 13. For the same compound, the fAUC/MIC [48] was 8.3, the fAUC/MIC [49] was 8.6 and the Activity [50] was 14%. The Activity [51] was 23%.
